From ChEMBL document CHEMBL3259781 (J Med Chem, 2014)

Assays:
Adenosine receptor A3 [1] = biological target: T1, Adenosine receptor A3 (Homo sapiens, UniProt P0DMS8)
T1 sequence (P0DMS8 whole entry): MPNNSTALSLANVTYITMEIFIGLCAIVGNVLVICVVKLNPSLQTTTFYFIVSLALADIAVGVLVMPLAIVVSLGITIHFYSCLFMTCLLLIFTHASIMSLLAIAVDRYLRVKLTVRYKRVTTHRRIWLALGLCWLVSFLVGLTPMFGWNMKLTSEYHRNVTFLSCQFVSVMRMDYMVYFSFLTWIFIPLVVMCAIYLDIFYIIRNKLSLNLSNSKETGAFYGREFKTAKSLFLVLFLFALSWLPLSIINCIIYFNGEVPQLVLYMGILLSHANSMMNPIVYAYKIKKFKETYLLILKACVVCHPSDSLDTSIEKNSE

Mus musculus [2] = assay: Anticataleptic activity in po dosed mouse assessed as inhibition of haloperidol-induced catalepsy; format: functional
Adenosine receptor A1 [3] = biological target: T2, Adenosine receptor A1 (Rattus norvegicus, UniProt P25099)
T2 sequence (P25099 whole entry): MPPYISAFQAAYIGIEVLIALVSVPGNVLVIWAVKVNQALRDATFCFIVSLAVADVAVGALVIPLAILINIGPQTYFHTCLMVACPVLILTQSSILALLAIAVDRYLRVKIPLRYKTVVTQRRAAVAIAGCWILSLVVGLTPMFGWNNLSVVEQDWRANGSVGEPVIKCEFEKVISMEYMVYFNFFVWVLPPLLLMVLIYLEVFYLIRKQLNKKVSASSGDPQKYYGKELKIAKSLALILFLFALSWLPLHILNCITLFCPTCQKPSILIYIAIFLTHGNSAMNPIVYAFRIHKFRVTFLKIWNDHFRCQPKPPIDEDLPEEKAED

Rattus norvegicus [4] = species on record: Rattus norvegicus; assay: Selectivity ratio of Ki for rat striatal adenosine A1 receptor to Ki for rat recombinant adenosine receptor A2a
Adenosine receptor A1 [5] = biological target: T3, Adenosine receptor A1 (Homo sapiens, UniProt P30542)
T3 sequence (P30542 whole entry): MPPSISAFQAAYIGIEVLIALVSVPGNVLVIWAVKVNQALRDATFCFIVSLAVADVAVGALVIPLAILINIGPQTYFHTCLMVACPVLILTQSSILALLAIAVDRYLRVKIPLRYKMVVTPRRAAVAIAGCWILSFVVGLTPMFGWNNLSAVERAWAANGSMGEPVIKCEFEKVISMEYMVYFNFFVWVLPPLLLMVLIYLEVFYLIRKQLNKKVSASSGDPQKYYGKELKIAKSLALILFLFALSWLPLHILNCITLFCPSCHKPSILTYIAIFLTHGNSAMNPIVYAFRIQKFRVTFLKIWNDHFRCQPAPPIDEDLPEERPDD

Homo sapiens = species on record: Homo sapiens; assay: Selectivity ratio of Ki for human recombinant adenosine A1 receptor to Ki for human recombinant adenosine receptor A2a
Adenosine receptor A2b [6] = biological target: T4, Adenosine receptor A2b (Homo sapiens, UniProt P29275)
T4 sequence (P29275 whole entry): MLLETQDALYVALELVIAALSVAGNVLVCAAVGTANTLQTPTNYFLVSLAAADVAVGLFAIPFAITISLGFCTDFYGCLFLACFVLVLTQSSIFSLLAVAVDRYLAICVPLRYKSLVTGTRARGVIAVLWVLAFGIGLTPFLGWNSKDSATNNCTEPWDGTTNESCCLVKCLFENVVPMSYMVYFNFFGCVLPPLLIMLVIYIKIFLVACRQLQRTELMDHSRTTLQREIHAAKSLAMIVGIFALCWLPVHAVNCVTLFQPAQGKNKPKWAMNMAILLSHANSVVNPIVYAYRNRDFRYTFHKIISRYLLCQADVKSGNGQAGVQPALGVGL

Adenosine receptor A2a [7] = biological target: T5, Adenosine receptor A2a (Homo sapiens, UniProt P29274)
T5 sequence (P29274 whole entry): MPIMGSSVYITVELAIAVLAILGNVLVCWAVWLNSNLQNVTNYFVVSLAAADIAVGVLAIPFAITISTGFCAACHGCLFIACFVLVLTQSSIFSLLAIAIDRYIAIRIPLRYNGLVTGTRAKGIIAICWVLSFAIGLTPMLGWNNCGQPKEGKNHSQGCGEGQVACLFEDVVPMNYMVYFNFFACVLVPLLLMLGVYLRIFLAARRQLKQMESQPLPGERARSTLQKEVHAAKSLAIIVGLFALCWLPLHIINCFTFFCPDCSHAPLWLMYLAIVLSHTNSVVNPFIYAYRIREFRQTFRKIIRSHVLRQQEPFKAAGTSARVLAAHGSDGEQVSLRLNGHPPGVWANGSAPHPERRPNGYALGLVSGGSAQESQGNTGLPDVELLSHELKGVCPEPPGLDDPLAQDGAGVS

Adenosine receptor A1 [8] = biological target: T3, Adenosine receptor A1; remark: listed apart in the source
Adenosine receptor A2b [9] = biological target: T4, Adenosine receptor A2b; remark: listed apart in the source
Adenosine receptor A3 [10] = biological target: T1, Adenosine receptor A3; assay: Binding affinity to human recombinant adenosine A3 receptor
Adenosine receptor A2a [11] = biological target: T5, Adenosine receptor A2a; remark: listed apart in the source
Rattus norvegicus [12] = assay: Anticataleptic activity in po dosed rat assessed as inhibition of haloperidol-induced catalepsy; format: functional
[13] = biological target: T6, Adenosine receptor A1 (Homo sapiens) (UniProt P30542); assay: Inhibition of human recombinant adenosine A1 receptor at 10 uM
T6 sequence (whole entry): T3 sequence (P30542 whole entry)

[14] = biological target: T7, Adenosine receptor A2b (Homo sapiens) (UniProt P29275); assay: Inhibition of human recombinant adenosine receptor A2b at 10 uM
T7 sequence (whole entry): T4 sequence (P29275 whole entry)

[15] = biological target: T6, Adenosine receptor A1 (Homo sapiens); assay: Inhibition of human recombinant adenosine A1 receptor at 1 uM
[16] = biological target: T7, Adenosine receptor A2b (Homo sapiens); assay: Inhibition of human recombinant adenosine receptor A2b at 1 uM
Adenosine receptor A2a [17] = biological target: T5, Adenosine receptor A2a; assay: Inhibition of human recombinant adenosine receptor A2a at 10 nM
Adenosine receptor A2a [18] = biological target: T5, Adenosine receptor A2a; assay: Inhibition of human recombinant adenosine receptor A2a at 100 nM
Mus musculus [19] = assay: Anticataleptic activity in mouse assessed as inhibition of CGS21680-induced catalepsy at 10 mg/kg, po; format: functional
Rattus norvegicus [20] = species on record: Rattus norvegicus; assay: Anticataleptic activity in rat assessed as minimum efficacious dose; format: functional; conditions: read-out: MED
Rattus norvegicus [21] = assay: Induction of hypolocomotion in po dosed rat assessed as reduction in motor deficts; format: functional
Rattus norvegicus [22] = assay: Anticataleptic activity in rat assessed as inhibition at 3 mg/kg, po after 1 hr; format: functional
Rattus norvegicus [23] = assay: Anticataleptic activity in rat assessed as inhibition at 3 mg/kg, po after 4 hrs; format: functional
[24] = AUC in rat at 3 mg/kg, po; format: ADME, organism-based; set-up: dose 3 mg/kg, route oral; conditions: plasma
Adenosine receptor A2a [25] = biological target: Adenosine receptor A2a (Rattus norvegicus, UniProt P30543)
Chain of Adenosine receptor A2a (Rattus norvegicus, UniProt P30543) (P30543 whole entry): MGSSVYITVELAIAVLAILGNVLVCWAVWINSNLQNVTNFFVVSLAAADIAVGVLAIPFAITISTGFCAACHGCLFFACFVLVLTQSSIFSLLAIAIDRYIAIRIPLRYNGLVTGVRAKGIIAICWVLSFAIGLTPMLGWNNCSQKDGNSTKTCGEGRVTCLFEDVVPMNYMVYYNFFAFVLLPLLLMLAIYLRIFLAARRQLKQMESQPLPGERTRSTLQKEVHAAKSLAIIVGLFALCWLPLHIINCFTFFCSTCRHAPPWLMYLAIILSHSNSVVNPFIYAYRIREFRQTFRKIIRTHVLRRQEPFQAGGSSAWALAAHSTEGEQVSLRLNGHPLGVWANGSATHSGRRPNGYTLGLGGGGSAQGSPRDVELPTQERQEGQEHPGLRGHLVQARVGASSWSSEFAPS

## CCn1c(=O)c2c(nc(/C=C/c3ccc(OC)c(OC)c3)n2C)n(CC)c1=O [ISTRADEFYLLINE]
Adenosine receptor A3 [1]
  Ki: > 3000 nM

## Nc1nc(-c2ccccc2)c2c(n1)-c1cc(OCCN3CCOCC3)ccc1C2=O
Mus musculus [2]
  ED50: 0.3 mg/kg

## Nc1nc(NC[C@H]2CCCN2Cc2ccnc(Cl)c2)nc2nc(-c3ccco3)nn12
Adenosine receptor A1 [3]
  Ki: > 250 nM
Rattus norvegicus [4]
  Ratio Ki: 63

## CC1(C)CCCN(c2nnc(N)nc2-c2ccccc2)C1
Adenosine receptor A1 [5]
  Ki: 10000 nM
Homo sapiens
  Ratio Ki: 245

## Nc1nc(-c2ccco2)c2ncn(C(=O)NCc3ccco3)c2n1
Adenosine receptor A3 [1]
  Ki: 1930 nM
Adenosine receptor A2b [6]
  Ki: 141 nM
Adenosine receptor A2a [7]
  Ki: 1.7 nM

## Nc1nc(OCCc2ccc(Cl)cc2)nc2c1ncn2[C@@H]1O[C@H](CO)[C@@H](O)[C@H]1O [SONEDENOSON]
Adenosine receptor A1 [8]
  Ki: 10000 nM
Adenosine receptor A2b [9]
  EC50: 10 µM

## Nc1nc(Cl)nc2c1ncn2[C@@H]1O[C@H](CO)[C@@H](O)[C@H]1O
Adenosine receptor A1 [8]
  Ki: 1.39 nM
Adenosine receptor A3 [10]
  Ki: 19 nM
Adenosine receptor A2a [11]
  Ki: 180 nM

## Nc1nc(-c2ccccc2)c2c(n1)-c1cc(NCCN3CCOCC3)ccc1C2=O
Mus musculus [2]
  ED50: < 0.1 mg/kg

## CC(=O)CCc1nc(N)c2nc(-n3nccn3)n(C)c2n1
Adenosine receptor A1 [5]
  Ki: 192 nM
Homo sapiens
  Ratio Ki: 16

## CN(CCN1CCN(c2ccc(F)cc2F)CC1)c1cc2nc(-c3cccc(C#N)c3)nn2c(N)n1
Adenosine receptor A1 [5]
  Ki: 1120 nM
Homo sapiens
  Ratio Ki: 620

## COCCOc1ccc(N2CCN(CCn3cnc4c3nc(N)n3nc(-c5ccccn5)nc43)CC2)cc1
Adenosine receptor A1 [5]
  Ki: 1360 nM
Homo sapiens
  Ratio Ki: 108

## Cc1cc(C)n(-c2cc(NC(=O)COc3cccc(CN(C)C)c3)nc(-c3ccc(C)o3)n2)n1
Rattus norvegicus [12]
  ED50: 10 mg/kg
Adenosine receptor A1 [5]
  Ki: 40 nM

## COc1ccc(-c2ccccc2)c2cc(C(=O)N3CCOCC3)oc12
[13]
  inhibition: 82%
[14]
  inhibition: 98%
[15]
  inhibition: 37%
[16]
  inhibition: 81%
Adenosine receptor A2a [17]
  inhibition: 39%
Adenosine receptor A2a [18]
  inhibition: 81%
Mus musculus [19]
  inhibition in vivo at 10 mg/kg: 78%

## COc1cnc(N2CCOCC2)c2sc(NC(=O)c3ccc(F)cc3)nc12
Adenosine receptor A2a [7]
  Ki: 5 nM
Adenosine receptor A1 [5]
  Ki: 2100 nM
Homo sapiens
  Ratio Ki: 420

## Cc1cc(Cn2nnc3c(-c4ccco4)nc(N)nc32)ccc1N [VIPADENANT]
Rattus norvegicus [20]
  minimal effective dose: 0.1 mg/kg

## COC(=O)Nc1cc2c(-c3ccccc3)ccc(OC)c2o1
Mus musculus [19]
  inhibition in vivo at 10 mg/kg: 86%

## CC(=O)Nc1cc(-n2cccn2)nc(-c2ccco2)n1
Adenosine receptor A1 [5]
  Ki: 10.2 nM
Homo sapiens
  Ratio Ki: 17

## Nc1nnc(-c2ccccc2)c(-c2ccccc2)n1
Adenosine receptor A1 [5]
  Ki: 270 nM

## CCNC(=O)[C@H]1O[C@@H](n2cnc3c(N)nc(NCCc4ccc(CCC(=O)NCCN)cc4)nc32)[C@H](O)[C@@H]1O
Rattus norvegicus [21]
  ID90: 3.4 mg/kg
Rattus norvegicus [21]; Rattus norvegicus, po, read-out: ID50 (the source's name)
  ED50: 0.5 mg/kg

## Cc1ccc2cc(CCn3ncc4c3nc(N)n3nc(-c5ccco5)nc43)ccc2n1
Rattus norvegicus [22]
  inhibition in vivo at 3 mg/kg: 86%
Rattus norvegicus [23]
  inhibition in vivo at 3 mg/kg: 38%
[24]
  AUC: 1400 ng·h/mL
Adenosine receptor A1 [5]
  Ki: 406 nM
Homo sapiens
  Ratio Ki: 169

## CCCCc1nc(N)c2nc(-n3nccn3)n(C)c2n1 [ST1535]
Adenosine receptor A3 [1]
  Ki: > 10000 nM
Adenosine receptor A1 [5]
  Ki: 79.2 nM
Homo sapiens
  Ratio Ki: 12

## Nc1nc2ccc(Cl)cc2c2nc(-c3ccco3)nn12 [CGS-15943]
Adenosine receptor A2a [25]
  Ki: 0.4 nM

## CCNC(=O)[C@H]1O[C@@H](n2cnc3c(N)nc(C#CC[C@H]4CC[C@H](C(=O)OC)CC4)nc32)[C@H](O)[C@@H]1O [APADENOSON]
Adenosine receptor A1 [8]
  Ki: 77 nM
Adenosine receptor A3 [10]
  Ki: 45 nM
